Results on 4 compounds are retold here after PMC4021201, “Repositioning: the fast track to new anti-malarial medicines?” (Malaria Journal, 2014).

One data set deals with P. falciparum K1. Description: SYBR I dye DNA staining assay (Pfizer), P. falciparum K1.
In a further data set the test system is P. falciparum 3D7. Description: SYBR I dye DNA staining assay (Pfizer), P. falciparum 3D7.
Another data set has as its system P. falciparum NF54. Description: SYBR I EC50 determination assay (AstraZeneca). Conditions: Plasmodium falciparum; P. falciparum strain NF54; 72 h; read-out: Pf EC50. It is filed as cell-based. The text has this: (§1) AZ also used a SYBR® I EC50 determination assay, but with P. falciparum NF54 (MRA-1000, MR4, ATCC, Manassas, VA, USA). The per cent inhibition with respect to the control was plotted against the logarithm of the drug concentration. The curve was fitted by non-linear regression using the sigmoidal dose–response (variable slope) formula to yield the concentration–response curves. The concentration at which 50% inhibition was observed was taken as the EC50 value of the compound. A cytotoxicity assay was also performed by AZ, using the human hepatoma Hep G2 cell line and the per cent inhibition and EC50 values were calculated as described for P. falciparum.
AstraZeneca. This group also used a SYBR® I IC50 determination assay. Compounds were serially diluted in 384 well plates (C3570, Corning Life Sciences). 1 µL of compound was dispensed in a 10 point concentration response format using a Biomek Fx liquid dispenser. To this, 50 µL of P. falciparum NF54 (MRA-1000, MR4, ATCC, Manassas, Virginia) ring stage culture at 2% parasitemia and 0.3 % hematocrit was added using a multidrop dispenser. […] After incubation, the % parasitemia in one of the untreated culture control wells was determined by light microscopy. […] Green fluorescence (485 nm excitation/ 530 nm emission) was measured using the Safire 2 fluorimeter (Tecan Instruments). […]

Data set [1] has as its system human hepatoma Hep G2 cell line. Nature of the data set: Hep G2 cytotoxicity assay (AstraZeneca). To be noted: HepG2, 72 h. Format: cell-based.
Excerpt: as §1
The human hepatoma Hep G2 cell line was used for the cytotoxicity assay. 1 µL of compound was dispensed in a 10 point concentration response format using a Biomek Fx liquid dispenser into white sterile 384-well opaque bottom plates (C3570, Corning Life Sciences). To this, 50 µL of Hep G2 cells at 3000 cells/well was added using a Multidrop dispenser. The plates were then incubated at 37 °C for 72 h in a 5% CO2 incubator. Resazurin at a final concentration of 10 µM was added to all wells and the plates were incubated at room temperature for 4 h. Fluorescence (excitation 535 nm; emission 590 nm) was measured in a Safire 2 fluorimeter. The % inhibition with respect to the control was plotted against the logarithm of the drug concentration. […]

The next data set concerns P. berghei. Description: Plasmodium berghei four-day suppression test. It is filed as in vivo. To be noted: 100–200 mg/kg BID oral, four days, BALB/c mice, with oral aminobenzotriazole 100 mg/kg. Here is the method:
AZ compounds were tested by the company for in vivo efficacy in a standard four-day suppression test using the rodent malaria parasite P. berghei. All animal experimentation protocols were approved by the Institutional Animal Ethics Committee registered with the Government of India (Registration No: 5/1999/CPCSEA). Adult male BALB/c mice (purchased from RCC Laboratories, Hyderabad, India) were used for efficacy studies. Animals were randomly distributed to cages quarantined for one week with veterinary examination and then taken into experimentation. Feed and water were given ad libitum. Briefly, male BALB/c mice were infected intraperitoneally with 2×10^7 infected erythrocytes on day 0. […] On day 3, per cent parasitaemia was estimated microscopically from a Giemsa-stained blood smear. The effect of the test compound on parasite growth was calculated as the difference between the mean value of the control group (taken as 100%) and those of the experimental group and expressed as per cent reduction. Reference anti-malarial compounds (chloroquine and artemisinin) were used as positive controls and the results obtained matched those published in the literature. Pharmacokinetics were analysed in healthy as well as infected mice. Data from healthy mice were used for designing the dosing regimen for the efficacy studies. […]

Details of data set [2]: method as in unpublished data provided by Pfizer Inc. To be noted: ref unpublished data provided by Pfizer Inc; cited from earlier work.
The target in the next data set is hERG (Homo sapiens, UniProt Q12809). Description: Independently run hERG assay.
On the set-up of data set [3]: method as in data provided by Pfizer. Conditions: human, single doses from 10 mg to 480 mg; ref data provided by Pfizer; cited from earlier work.
Data set [4] can be described thus: Pharmacokinetics in P. falciparum-infected humanized mice. To be noted: for Cmax / Tmax: NOD-scid IL-2Rγ^null, mouse, po; for Cmax / Tmax / AUC (0–t): whole blood; for DNAUC(0–t): dose-normalized AUC(0–t); for DNAUC(0–t) / AUC (0–t): mean (SD).
The test system of data set [5] is P. falciparum Pf3D7^0087/N9. Nature of the data set: Plasmodium falciparum huSCID humanized mouse model, four-day test.
Setting [6] is: Plasmodium falciparum, K1, read-out: EC50 K1.
The mark [7] stands for this setting: Plasmodium falciparum, 3D7, read-out: EC50 3D7.

Where “and” joins values, the source holds several entries; their conditions need not be identical. Equal entries are not always repeated. Where two headings read alike, the source gives them in different places.

hERG, sequence (Q12809 whole entry): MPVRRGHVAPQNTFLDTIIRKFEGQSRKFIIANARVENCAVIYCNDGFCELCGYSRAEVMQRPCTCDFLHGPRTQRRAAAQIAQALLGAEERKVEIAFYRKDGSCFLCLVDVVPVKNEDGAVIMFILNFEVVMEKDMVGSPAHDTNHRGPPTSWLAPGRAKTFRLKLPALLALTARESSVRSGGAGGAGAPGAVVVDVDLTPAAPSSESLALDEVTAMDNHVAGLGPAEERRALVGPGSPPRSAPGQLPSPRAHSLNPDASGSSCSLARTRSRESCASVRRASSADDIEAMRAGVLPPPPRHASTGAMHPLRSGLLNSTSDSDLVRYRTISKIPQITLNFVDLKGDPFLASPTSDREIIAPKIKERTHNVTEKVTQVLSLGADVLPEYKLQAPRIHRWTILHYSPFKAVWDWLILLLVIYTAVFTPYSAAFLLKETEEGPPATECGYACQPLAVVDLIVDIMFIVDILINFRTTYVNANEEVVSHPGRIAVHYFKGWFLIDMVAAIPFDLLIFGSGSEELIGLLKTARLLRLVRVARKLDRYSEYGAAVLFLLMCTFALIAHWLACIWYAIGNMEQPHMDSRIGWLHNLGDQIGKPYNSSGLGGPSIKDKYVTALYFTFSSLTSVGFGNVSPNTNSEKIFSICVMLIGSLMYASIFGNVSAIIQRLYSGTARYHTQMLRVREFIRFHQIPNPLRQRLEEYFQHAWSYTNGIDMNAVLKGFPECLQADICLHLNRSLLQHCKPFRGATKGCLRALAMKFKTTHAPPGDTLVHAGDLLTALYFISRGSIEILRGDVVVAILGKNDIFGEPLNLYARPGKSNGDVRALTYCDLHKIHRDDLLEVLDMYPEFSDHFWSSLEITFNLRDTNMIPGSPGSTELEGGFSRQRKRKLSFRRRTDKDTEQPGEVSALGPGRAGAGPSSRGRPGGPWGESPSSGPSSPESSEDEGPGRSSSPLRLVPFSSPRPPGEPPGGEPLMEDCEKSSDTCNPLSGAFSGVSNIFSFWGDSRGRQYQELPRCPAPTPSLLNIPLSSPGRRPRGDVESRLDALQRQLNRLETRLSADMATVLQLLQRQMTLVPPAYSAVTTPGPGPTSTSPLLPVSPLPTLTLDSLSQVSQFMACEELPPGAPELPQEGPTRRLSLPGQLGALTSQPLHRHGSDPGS

As usually defined, the EC50 is the concentration giving half of the maximal effect. As for `CCNCc1cncc(-c2ccc3[nH]nc(-c4nc5c(F)cc(F)cc5[nH]4)c3c2)c1C` [AG-024322], the EC50 with P. falciparum K1 (read-out: EC50 K1, mean (95% CI), Pfizer SYBR I fluorescence assay) came to 400 nM; in the data set on P. falciparum 3D7 (read-out: EC50 3D7, mean (95% CI), Pfizer SYBR I fluorescence assay), 700 nM.
For `CC(C)Oc1cc(Nc2nc(N[C@@H](C)c3ccc(F)cn3)ncc2Cl)n[nH]1` [AZ-1], the EC50 turned out to be 600 nM in the data set on P. falciparum NF54 and 10400 nM in data set [1]. For the same compound, in the data set with P. berghei, the “growth inhibition in P. berghei-infected mice” value is reported as 50–60%.
Consider `COc1ccc(C(=O)c2cn(C(C)C)c3ncnc(N)c23)cc1NC(=O)Nc1ccc(Cl)cc1Cl` [CE-245677], for which, in [2], the “human plasma level with significant central nervous system adverse events” value is given as ~ 1.5 μM. Besides, the values for the half-maximal effective concentration (EC50) in the data set with P. falciparum K1 (setting [6]) and in the data set with P. falciparum 3D7 (setting [7]) were 800 nM and 1100 nM, respectively.
The Cmax is the peak of the concentration-time curve. The term Tmax denotes the time at which the peak concentration occurs. A word on the ED50: it is the dose that gives a 50% effect, or the effect in half of the subjects. Turning to `Cc1nc2cnccc2n1-c1ccc(C(=O)N2CCC(=C3c4ccc(Cl)cc4CCc4cccnc43)CC2)cc1` [UK-112,214], the hERG on hERG is 2.8 µM. In addition, the Cmax in data set [3] is 14 to 4145 ng/mL; in data set [4] (100 mg/kg) it was 8610 ng/mL; in data set [4] (300 mg/kg) it was 17600 ng/mL. Moreover, the results for the EC50 with P. falciparum K1 (setting [6]) and in the data set with P. falciparum 3D7 (setting [7]) were 600 nM and 550 nM, respectively. For the same compound, the time to peak (Tmax) was found to be 4 h in [4] (100 mg/kg) and 3.3 h in data set [4] (300 mg/kg). Besides, the “DNAUC(0–t)” value is on record as 0.859 (0.32) μg · h · mL^−1 · day^−1 in data set [4] (target dose 100 mg/kg oral) and 1.03 (0.45) μg · h · mL^−1 · day^−1 in data set [4] (target dose 300 mg/kg oral). The “AUC (0–t)” value is 72.1 (2.7) μg · h · mL in data set [4] (target dose 100 mg/kg oral) and 231 (101) μg · h · mL in data set [4] (target dose 300 mg/kg oral). The compound also came in with an ED50 in data set [5] (Plasmodium falciparum, in Mus musculus, parasitaemia at day 7 after infection, once daily for four days, mean (95% CI)) of 80.6 mg/kg. In data set [5] (blood exposure needed to inhibit parasitaemia at day 7 by 90% vs vehicle), the AUCED90 is 111.5 μg · h · mL^−1 · day^−1 and 111.5 (106.6, 121.1) μg · h · mL^−1 · day^−1. Moreover, in data set [5] (parasitaemia at day 7 after infection, once daily for four days, mean (95% CI)), the ED90 was 131.3 mg/kg and 131.3 (112.3, 156.7) mg/kg.
